Experimental data: ChEMBL document CHEMBL4373661, “Set-up and screening of a fragment library targeting the 14-3-3 protein interface” (Medchemcomm, 2019)
Calls of active or inactive are those of the source. The rule behind the calls is not given here.

Legend:
Homo sapiens [1] = organism: Homo sapiens; test: Binding affinity to human His6-tagged 14-3-3 protein sigma C17 deletion mutant expressed in Escherichia coli BL21 (DE3) at 500 uM by WaterLOGSY NMR analysis
Homo sapiens [2] = organism: Homo sapiens; test: Binding affinity to 15N2H labelled human 14-3-3 protein sigma C17 deletion mutant at top of helices alphaH and alphaI assessed as chemical shift perturbations in resonances at 2000 uM by 1H-15N TROSY-HSQC 2D NMR analysis
Homo sapiens [3] = organism: Homo sapiens; test: Binding affinity to 15N2H labelled human 14-3-3 protein sigma C17 deletion mutant at dimer interface assessed as chemical shift perturbations in resonances at 2000 uM by 1H-15N TROSY-HSQC 2D NMR analysis

| Structure (SMILES) | Activity (Homo sapiens [1]) | Activity (Homo sapiens [2]) | Activity (Homo sapiens [3]) |
| --- | --- | --- | --- |
| CC12CC3(C)CC(C)(C1)CC(C(=O)O)(C2)C3 | Active | Active |  |
| Cc1ccc(B(O)O)cc1Cl | Active | Active |  |
| NC(=O)c1cc(Cl)cc(Cl)c1O | Active |  | Active |
